According to BindingDB's records for doi:10.1124/jpet.103.053975 (National Institute On Drug Abuse, 2003):
Where “and” joins values, the source holds several entries; their conditions need not be identical. Equal entries are not always repeated.

How the values were obtained:
[1] = molecular target: T1, Alpha-2C adrenergic receptor (Homo sapiens, UniProt P18825)
T1 sequence (P18825 whole entry): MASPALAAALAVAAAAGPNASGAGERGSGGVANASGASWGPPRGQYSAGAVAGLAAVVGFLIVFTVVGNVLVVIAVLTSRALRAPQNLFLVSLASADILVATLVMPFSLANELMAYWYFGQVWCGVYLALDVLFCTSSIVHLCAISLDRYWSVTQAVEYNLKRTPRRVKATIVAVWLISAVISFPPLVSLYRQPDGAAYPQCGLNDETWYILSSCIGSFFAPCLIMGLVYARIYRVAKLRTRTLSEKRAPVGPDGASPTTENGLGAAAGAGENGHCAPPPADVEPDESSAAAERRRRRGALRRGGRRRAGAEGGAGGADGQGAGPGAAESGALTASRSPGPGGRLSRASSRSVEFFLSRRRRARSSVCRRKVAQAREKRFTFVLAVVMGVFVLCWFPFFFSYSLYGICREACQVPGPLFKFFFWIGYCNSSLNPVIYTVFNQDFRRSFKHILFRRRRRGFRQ

[2] = molecular target: T2, Alpha-2A adrenergic receptor (Homo sapiens, UniProt P08913)
T2 sequence (P08913 whole entry): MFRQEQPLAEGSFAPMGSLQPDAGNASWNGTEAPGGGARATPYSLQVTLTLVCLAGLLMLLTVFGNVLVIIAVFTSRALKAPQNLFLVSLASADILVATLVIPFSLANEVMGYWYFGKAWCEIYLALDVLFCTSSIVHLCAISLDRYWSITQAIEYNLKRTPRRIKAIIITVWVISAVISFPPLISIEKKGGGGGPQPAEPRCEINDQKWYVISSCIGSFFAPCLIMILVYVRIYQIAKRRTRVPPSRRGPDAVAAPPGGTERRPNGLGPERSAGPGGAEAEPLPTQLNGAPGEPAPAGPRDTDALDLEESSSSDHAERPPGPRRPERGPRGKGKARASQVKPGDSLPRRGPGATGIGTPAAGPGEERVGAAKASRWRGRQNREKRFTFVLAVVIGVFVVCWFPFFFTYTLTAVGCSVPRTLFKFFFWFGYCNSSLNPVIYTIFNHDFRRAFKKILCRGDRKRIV

[3] = molecular target: 5-hydroxytryptamine receptor 7 (Homo sapiens, UniProt P34969)
[4] = molecular target: Sodium-dependent noradrenaline transporter (Homo sapiens, UniProt P23975)
[5] = molecular target: Sodium-dependent serotonin transporter (Homo sapiens, UniProt P31645)
Chain of Sodium-dependent serotonin transporter (P31645 whole entry): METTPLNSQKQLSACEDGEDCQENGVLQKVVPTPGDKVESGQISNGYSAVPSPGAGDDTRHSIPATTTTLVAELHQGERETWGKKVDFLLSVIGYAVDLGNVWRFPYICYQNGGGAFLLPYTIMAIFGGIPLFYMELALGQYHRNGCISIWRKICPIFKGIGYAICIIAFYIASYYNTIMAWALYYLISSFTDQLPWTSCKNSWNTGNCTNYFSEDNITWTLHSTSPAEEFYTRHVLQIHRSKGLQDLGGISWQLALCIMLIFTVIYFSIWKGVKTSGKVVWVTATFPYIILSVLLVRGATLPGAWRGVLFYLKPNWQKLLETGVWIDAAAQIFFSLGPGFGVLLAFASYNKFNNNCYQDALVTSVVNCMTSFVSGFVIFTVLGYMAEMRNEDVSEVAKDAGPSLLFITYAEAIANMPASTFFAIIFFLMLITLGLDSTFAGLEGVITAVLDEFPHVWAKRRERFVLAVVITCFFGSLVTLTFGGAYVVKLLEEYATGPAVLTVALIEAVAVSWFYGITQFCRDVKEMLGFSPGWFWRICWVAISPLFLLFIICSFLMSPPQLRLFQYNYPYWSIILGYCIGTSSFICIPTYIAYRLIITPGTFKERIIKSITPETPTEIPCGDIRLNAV

Chain of 5-hydroxytryptamine receptor 7 (P34969 whole entry): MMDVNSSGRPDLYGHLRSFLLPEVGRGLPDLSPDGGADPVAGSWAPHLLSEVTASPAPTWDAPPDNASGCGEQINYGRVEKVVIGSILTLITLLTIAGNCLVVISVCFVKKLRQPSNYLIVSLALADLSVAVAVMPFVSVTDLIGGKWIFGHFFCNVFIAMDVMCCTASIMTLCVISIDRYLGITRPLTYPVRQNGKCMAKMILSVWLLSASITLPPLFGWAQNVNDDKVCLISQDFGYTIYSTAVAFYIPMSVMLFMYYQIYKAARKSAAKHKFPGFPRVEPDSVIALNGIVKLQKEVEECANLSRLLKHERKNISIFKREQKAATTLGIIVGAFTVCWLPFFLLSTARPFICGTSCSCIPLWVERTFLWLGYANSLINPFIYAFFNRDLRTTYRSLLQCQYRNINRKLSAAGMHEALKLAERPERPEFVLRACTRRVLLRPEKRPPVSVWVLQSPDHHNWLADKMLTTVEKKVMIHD
Chain of Sodium-dependent noradrenaline transporter (P23975 whole entry): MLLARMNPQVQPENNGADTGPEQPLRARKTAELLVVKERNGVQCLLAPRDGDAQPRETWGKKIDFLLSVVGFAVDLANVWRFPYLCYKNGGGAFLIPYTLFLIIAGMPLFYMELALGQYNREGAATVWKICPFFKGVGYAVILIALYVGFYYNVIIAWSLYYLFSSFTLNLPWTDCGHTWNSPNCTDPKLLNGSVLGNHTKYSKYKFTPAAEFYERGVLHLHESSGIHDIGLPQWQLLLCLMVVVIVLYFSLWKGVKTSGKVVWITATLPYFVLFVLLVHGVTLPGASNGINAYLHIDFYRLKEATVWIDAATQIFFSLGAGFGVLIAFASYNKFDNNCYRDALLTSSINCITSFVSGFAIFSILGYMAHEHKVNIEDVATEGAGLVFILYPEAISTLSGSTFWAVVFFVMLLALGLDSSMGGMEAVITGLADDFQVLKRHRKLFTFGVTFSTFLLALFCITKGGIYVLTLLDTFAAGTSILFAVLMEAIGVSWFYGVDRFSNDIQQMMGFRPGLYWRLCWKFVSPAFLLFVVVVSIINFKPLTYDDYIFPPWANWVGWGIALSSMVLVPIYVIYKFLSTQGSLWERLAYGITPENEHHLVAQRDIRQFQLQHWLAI

SMILES	Ki [1]	Ki [2]	Ki [3]	Ki [4]	Ki [5]
CNC(C)C(O)c1ccccc1 (configuration not stated) [CAS_24221-86-1]	0.708 µM and 1.22 µM	2.01 µM	–	–	–
CC(N)C(O)c1ccccc1 [(1R, 2S)-2-Amino-1-phenyl-propan-1-ol]	–	3.02 µM and 1.33 µM and 2.61 µM and 2.6 µM	7 µM	0.137 µM and 0.0421 µM and 0.015 µM and 0.0301 µM	–
CC(N)C(=O)c1ccccc1 (configuration not stated) [CAS_62258]	0.765 µM	6.81 µM	2.7 µM	0.0124 µM	2.37 µM
CN[C@@H](C)Cc1ccccc1 [METHAMPHETAMINE (+)]	–	–	–	0.0123 µM	0.736 µM
CNC(C)C(=O)c1ccccc1 (configuration not stated) [NSC_1576]	0.605 µM	9.02 µM	1 µM	0.0131 µM	1.77 µM
